*1 amine or outer side, *2 acyl side, *3 side chain or, on linkers, in order; H or OH if unused. Where a SMILES comes first, the peptide text is derived from it. Bridges are numbered along the chain shown (N, C = ends). X1 = O=C(C[*:2])[*:1]
Experiments:
carboxy peptidase = assay: Resistance to peptidase: decomposition by carboxy peptidase (HPLC); type: in vitro ADME; settings: isolated carboxy peptidase (SIGMA); 1 U/ml enzyme in PBS, 37° C., peptide 0.2 mg/ml; time at which half of the peptide was decomposed; read-out: half period by carboxy peptidase (t1/2)
Description: (§1) Resistance to a peptidase of a peptide of the present invention was investigated using a carboxy peptidase and chymotrypsin. Resistance to a peptidase was measured as described below.
A carboxy peptidase purchased from SIGMA was treated with PBS to prepare an enzyme solution of 1 U/ml, which was then kept warm at 37° C. in a water bath. Then, a peptide solution having a concentration adjusted to 5 mg/ml with DMSO: pure water=1:1 mixed solvent was treated with PBS(−) to obtain a concentration of 1 mg/ml, and the enzyme solution and the peptide solution were mixed at 4:1 so as to give a peptide final concentration of 0.2 mg/ml. Thereafter, these were reacted quickly at 37° C. With time, the reaction solution was sampled each in an amount of 0.1 ml, and a reaction stopping solution (25% TFA in acetonitrile, 20 μL) was added to stop the reaction. Samples were analyzed by HPLC, and decomposition of a peptide by the peptidase was measured. Sampling was conducted at 0, 0.5 minutes, 1 minute and 2 minutes, and when decomposition of […] or more was not obtained at 2 minutes, sampling was conducted further at 0.5 hours, 1 hour, 3 hours, additionally, sometimes at 6 hours, and for peptides stable for a long period, sampling was conducted in a range of 24 hours to 168 hours according to demands. Time at which half of the peptide added was decomposed was measured.

chymotrypsin = target: T1, chymotrypsin (Bos taurus, UniProt P00766); assay: Resistance to peptidase: decomposition by chymotrypsin (HPLC); type: in vitro ADME; settings: isolated chymotrypsin (SIGMA), pH 8; 4 U/ml enzyme in 0.1M Tris-HCl (pH8.0), 37° C., peptide 0.2 mg/ml; time at which half of the peptide was decomposed; read-out: half period by chymotrypsin (t1/2)
T1 construct: purchased SIGMA
Description: as §1
Chymotrypsin purchased from SIGMA was treated with 0.1M Tris-HCl (pH8.0) to prepare an enzyme solution of 4 U/ml, which was then kept warm at 37° C. in a water bath. Then, a peptide solution treated with DMSO: pure water=1:1 to obtain a concentration of 5 mg/ml was treated with 0.1M Tris-HCl (pH8.0) to give a concentration of 1 mg/ml, and the enzyme solution and the peptide solution were mixed at 4:1 so as to give a peptide final concentration of 0.2 mg/ml. Thereafter, these were reacted quickly at 37° C. With time, the reaction solution was sampled each in an amount of 0.1 ml, and a reaction stopping solution (25% TFA in acetonitrile, 20 μL) was added to stop the reaction. Samples were analyzed by HPLC, and decomposition of a peptide by chymotrypsin was measured. Sampling was conducted at 0, 0.5 minutes, 1 minute and 2 minutes, and when decomposition of 50% or more was not obtained at 2 minutes, sampling was conducted further at 0.5 hours, 1 hour, 3 hours, and time at which half of the peptide added was decomposed was measured.

Structure (SMILES)	half-life at 0.2 mg/ml (carboxy peptidase)	half-life at 0.2 mg/ml (chymotrypsin)
CC(=O)N1CCCC[C@@H](C(=O)N[C@@H](Cc2ccc(O)cc2)C(=O)O)NC(=O)[C@H](CC(C)C)NC(=O)[C@H](Cc2ccc(O)cc2)NC(=O)[C@H](CCC(N)=O)NC(=O)[C@H](CO)NC(=O)[C@H](Cc2c[nH]c3ccccc23)NC(=O)[C@@H](NC(=O)[C@@H](N)Cc2ccc(O)cc2)CCCC1 [Bdev-25]	2.63 min	1.85 min
CC(C)C[C@@H]1NC(=O)[C@H](Cc2ccc(O)cc2)NC(=O)[C@H](CCC(N)=O)NC(=O)[C@H](CO)NC(=O)[C@H](Cc2c[nH]c3ccccc23)NC(=O)[C@@H](NC(=O)[C@@H](N)Cc2ccc(O)cc2)CCCCNC(=O)CSC[C@@H](C(=O)N[C@@H](Cc2ccc(O)cc2)C(=O)O)NC1=O [Comp. 1, reference compound] (H-YKWSQYLCY-OH; linker 2-8 via X1)	0.72 min	0.45 min
CC(=O)N[C@@H](Cc1ccc(O)cc1)C(=O)N[C@H]1CCCCNCCCCN(CC(=O)N[C@@H](Cc2ccc(O)cc2)C(=O)O)C(=O)[C@H](CC(C)C)NC(=O)[C@H](Cc2ccc(O)cc2)NC(=O)[C@H](CCC(N)=O)NC(=O)[C@H](CO)NC(=O)[C@H](Cc2c[nH]c3ccccc23)NC1=O [Bdev6]	2.47 min	2.09 min
CCCCC(=O)N1CCCC[C@H](NC(=O)[C@@H](N)Cc2ccc(O)cc2)C(=O)N[C@@H](Cc2c[nH]c3ccccc23)C(=O)N[C@@H](CO)C(=O)N[C@@H](CCC(N)=O)C(=O)N[C@@H](Cc2ccc(O)cc2)C(=O)N[C@@H](CC(C)C)C(=O)N(CC(=O)N[C@@H](Cc2ccc(O)cc2)C(=O)O)CCCC1 [Bdev-28]	21.7 min	2.9 min
COCCOCCOCCOCCC(=O)N1CCCC[C@H](NC(=O)[C@@H](N)Cc2ccc(O)cc2)C(=O)N[C@@H](Cc2c[nH]c3ccccc23)C(=O)N[C@@H](CO)C(=O)N[C@@H](CCC(N)=O)C(=O)N[C@@H](Cc2ccc(O)cc2)C(=O)N[C@@H](CC(C)C)C(=O)N(CC(=O)N[C@@H](Cc2ccc(O)cc2)C(=O)O)CCCC1 [Bdev-29]	15.7 min	3.73 min
COCCOCCOCCOCCOCCOCCOCCOCCC(=O)N1CCCC[C@H](NC(=O)[C@@H](N)Cc2ccc(O)cc2)C(=O)N[C@@H](Cc2c[nH]c3ccccc23)C(=O)N[C@@H](CO)C(=O)N[C@@H](CCC(N)=O)C(=O)N[C@@H](Cc2ccc(O)cc2)C(=O)N[C@@H](CC(C)C)C(=O)N(CC(=O)N[C@@H](Cc2ccc(O)cc2)C(=O)O)CCCC1 [Bdev-30]	19.2 min	3.66 min
CCC(=O)N1CCCC[C@H](NC(=O)[C@@H](N)Cc2ccc(O)cc2)C(=O)N[C@@H](Cc2c[nH]c3ccccc23)C(=O)N[C@@H](CO)C(=O)N[C@@H](CCC(N)=O)C(=O)N[C@@H](Cc2ccc(O)cc2)C(=O)N[C@@H](CC(C)C)C(=O)N(CC(=O)N[C@@H](Cc2ccc(O)cc2)C(=O)O)CCCC1 [Bdev-27]	15 min	4.37 min
CC(=O)N1CCCC[C@H](NC(=O)[C@@H](N)Cc2ccc(O)cc2)C(=O)N[C@@H](Cc2c[nH]c3ccccc23)C(=O)N[C@@H](CO)C(=O)N[C@@H](CCC(N)=O)C(=O)N[C@@H](Cc2ccc(O)cc2)C(=O)N[C@@H](CC(C)C)C(=O)N(CC(=O)N[C@@H](Cc2ccc(O)cc2)C(=O)O)CCCC1 [Bdev2]	18.7 min	1.4 min
CC(=O)N[C@@H](Cc1ccc(O)cc1)C(=O)N[C@H]1CCCCN(C(C)=O)CCCCN(CC(=O)N[C@@H](Cc2ccc(O)cc2)C(=O)O)C(=O)[C@H](CC(C)C)NC(=O)[C@H](Cc2ccc(O)cc2)NC(=O)[C@H](CCC(N)=O)NC(=O)[C@H](CO)NC(=O)[C@H](Cc2c[nH]c3ccccc23)NC1=O [Bdev5]	3.34 min	0.39 min
CC(C)C[C@@H]1NC(=O)[C@H](Cc2ccc(O)cc2)NC(=O)[C@H](CCC(N)=O)NC(=O)[C@H](CO)NC(=O)[C@H](Cc2c[nH]c3ccccc23)NC(=O)[C@@H](NC(=O)[C@@H](N)Cc2ccc(O)cc2)CCCCNCCCCN(CC(=O)N[C@@H](Cc2ccc(O)cc2)C(=O)O)C1=O [Bdev8]	2.79 min	1.26 min
CC(C)C[C@@H]1NC(=O)[C@H](Cc2ccc(O)cc2)NC(=O)[C@H](CCC(N)=O)NC(=O)[C@H](CO)NC(=O)[C@H](Cc2c[nH]c3ccccc23)NC(=O)[C@@H](NC(=O)[C@@H](N)Cc2ccc(O)cc2)CSSC[C@@H](C(=O)N[C@@H](Cc2ccc(O)cc2)C(=O)O)NC1=O [STD, reference compound]	0.45 min	0.4 min
CC(=O)N1CCCCN(CC(=O)N[C@@H](Cc2ccc(O)cc2)C(=O)O)C(=O)[C@H](CC(C)C)NC(=O)[C@H](Cc2ccc(O)cc2)NC(=O)[C@H](CCC(N)=O)NC(=O)[C@H](CO)NC(=O)[C@H](Cc2c[nH]c3ccccc23)NC(=O)CN(C(=O)[C@@H](N)Cc2ccc(O)cc2)CCCC1 [Bdev-21]	14.6 min	0.95 min

Source: patent publication US9365615B2, “Cross-linked peptides containing non-peptide cross-linked structure, method for synthesizing cross-linked peptides, and novel organic compound used in method” (JITSUBO Co., Ltd., priority 2013, dated 2016)
